Tests used:
[1] = tested on: MV-4-11 (human, Acute Myeloid Leukemia cell line) cells; test: Cell growth inhibition assay, GI50 of MV-4-11; assay type: cell-based; conditions: Homo sapiens, MV4-11, 72 h, MV-4-11 cells
Method in brief: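 MV-4-11 AML cells (5×10^4/well, IMDM with 10% FBS) treated in duplicate with serially diluted compounds for 72 hours at 37 °C. Viability read as absorbance at 490 nm after CellTiter 96 Aqueous One (MTS) addition; GI50 calculated from the concentration-response.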

[2] = molecular target: cDNA-expressed human hepatic CYP3A4 (Homo sapiens (Human), UniProt P08684); test: Measurement of CYP (IC50 of P450 CYP3A4), BFC substrate; assay type: in vitro ADME; conditions: 20 minutes
Sequence of cDNA-expressed human hepatic CYP3A4 (P08684 whole entry): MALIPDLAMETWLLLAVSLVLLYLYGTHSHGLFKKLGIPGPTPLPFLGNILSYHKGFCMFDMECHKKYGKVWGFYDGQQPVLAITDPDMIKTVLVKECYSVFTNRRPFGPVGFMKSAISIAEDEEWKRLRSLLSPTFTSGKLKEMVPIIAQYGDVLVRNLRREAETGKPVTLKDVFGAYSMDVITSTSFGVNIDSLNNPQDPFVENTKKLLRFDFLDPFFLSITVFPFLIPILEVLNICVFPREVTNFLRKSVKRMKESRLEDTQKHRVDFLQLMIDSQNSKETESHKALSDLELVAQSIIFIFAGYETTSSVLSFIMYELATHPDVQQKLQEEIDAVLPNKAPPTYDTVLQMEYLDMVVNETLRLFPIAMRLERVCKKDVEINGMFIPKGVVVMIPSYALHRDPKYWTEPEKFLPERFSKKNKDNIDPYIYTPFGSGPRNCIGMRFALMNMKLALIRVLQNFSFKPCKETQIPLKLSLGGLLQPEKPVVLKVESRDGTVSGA
Method in brief: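 cDNA-expressed human CYP3A4 supersomes in 0.1M potassium phosphate pH 7.4 with 8.3 mM MgCl2, 1.67 mM EDTA and 0.25 mM NADPH; compounds in acetonitrile (<1% final). Reaction started with 30 µM BFC, 20 min at 37. 7-Hydroxy-4-trifluoromethyl-coumarin read by fluorescence (ex 409/em 530 nm).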

Row | Structure (SMILES) | GI50 [1] [µM] | IC50 [2] [µM]
1 | C=CCN1CC(=O)N2[C@@H](Cc3ccc(O)cc3)C(=O)N(Cc3cccc4c(-c5ccc(C(=O)NN6CCN(c7ccccn7)CC6)cc5)cn(C)c34)C[C@@H]2N1C(=O)NCc1ccccc1 [Compound D-44] | 0.0195 | > 25
2 | C=CCN1CC(=O)N2[C@@H](Cc3ccc(O)cc3)C(=O)N(Cc3cccc4c(-c5ccc(NC(=O)c6ccc(OC)cc6)cc5)cn(C)c34)C[C@@H]2N1C(=O)NCc1ccccc1 [Compound D-49] | 0.01 | > 25
3 | C=CCN1CC(=O)N2[C@@H](Cc3ccc(O)cc3)C(=O)N(Cc3cccc4c(C(=O)N5CC(N6CCC(OC)CC6)C5)cn(C)c34)C[C@@H]2N1C(=O)NCc1ccccc1 [Compound E-73] | 0.0193 | 11.8
4 | C=CCN1CC(=O)N2[C@@H](Cc3ccc(O)cc3)C(=O)N(Cc3cccc4c(C(=O)N5CCC(OC)CC5)cn(C)c34)C[C@@H]2N1C(=O)NCc1ccccc1 [Compound E-52] | 0.0092 | 3.3
5 | C=CCN1CC(=O)N2[C@@H](Cc3ccc(O)cc3)C(=O)N(Cc3cccc4c(C(=O)N5CCN(C)CC5)cn(C)c34)C[C@@H]2N1C(=O)NCc1ccccc1 [Compound E-4] | 0.0112 | 12.2
6 | C=CCN1CC(=O)N2[C@@H](Cc3ccc(O)cc3)C(=O)N(Cc3cccc4c(-c5ccc(C(=O)Nc6cccc(OC)c6)cc5)cn(C)c34)C[C@@H]2N1C(=O)NCc1ccccc1 [Compound D-21] | 0.0069 | 6.53
7 | C=CCN1CC(=O)N2[C@@H](Cc3ccc(O)cc3)C(=O)N(Cc3cccc4c(-c5ccc(NC(=O)Nc6ccc(OC)cc6)cc5)cn(C)c34)C[C@@H]2N1C(=O)NCc1ccccc1 [Compound D-76] | 0.0158 | 9.48
8 | C=CCN1CC(=O)N2[C@@H](Cc3ccc(O)cc3)C(=O)N(Cc3cccc4c(C(=O)N5CCOCC5)cn(C)c34)C[C@@H]2N1C(=O)NCc1ccccc1 [Compound E-3] | 0.0184 | 3.9
9 | C=CCN1CC(=O)N2[C@@H](Cc3ccc(O)cc3)C(=O)N(Cc3cccc4c(-c5ccc(C(=O)Nc6ccc(N7CCN(C)CC7)cc6)cc5)cn(C)c34)C[C@@H]2N1C(=O)NCc1ccccc1 [Compound D-11] | 0.0018 | 7.04
10 | C=CCN1CC(=O)N2[C@@H](Cc3ccc(O)cc3)C(=O)N(Cc3cccc4c(-c5ccc(C(=O)Nc6ccc(OC)cc6)cc5)cn(C)c34)C[C@@H]2N1C(=O)NCc1ccccc1 [Compound D-22] | 0.0042 | 19.5
11 | C=CCN1CC(=O)N2[C@@H](Cc3ccc(O)cc3)C(=O)N(Cc3cccc4c(-c5ccc(NC(=O)Nc6ncccn6)cc5)cn(C)c34)C[C@@H]2N1C(=O)NCc1ccccc1 [Compound D-82] | 0.0168 | 8.52
12 | C=CCN1CC(=O)N2[C@@H](Cc3ccc(O)cc3)C(=O)N(Cc3cccc4c(-c5ccc(NC(=O)c6ccc(N)cc6)cc5)cn(C)c34)C[C@@H]2N1C(=O)NCc1ccccc1 [Compound D-50] | 0.002 | > 25

Second part, the compound after the results:

Row | GI50 [1] [µM] | IC50 [2] [µM] | Structure (SMILES)
13 | 0.0013 | 7.6 | C=CCN1CC(=O)N2C(CN(Cc3cccc4c(C(=O)Nc5ccc(N6CCN(C)CC6)nc5)cn(C)c34)C(=O)[C@@H]2Cc2ccc(O)cc2)N1C(=O)NCc1ccccc1 (some centres unmarked) [Compound G-41]
14 | 0.013 | 7.1 | C=CCN1CC(=O)N2C(Cc3ccc(O)cc3)C(=O)N(Cc3cccc4c(C(=O)Nc5ccc(NC6CC(C)(C)N(C)C(C)(C)C6)nc5)cn(C)c34)CC2N1C(=O)NCc1ccccc1 (centres unmarked) [Compound G-52]
15 | 0.0175 | 6.15 | C=CCN1CC(=O)N2[C@@H](Cc3ccc(O)cc3)C(=O)N(Cc3cccc4c(C(=O)NC5CCN(C(=O)c6ccc(N(C)C)cc6)CC5)cn(C)c34)C[C@@H]2N1C(=O)NCc1ccccc1 [Compound F-66]
16 | 0.0198 | 2.86 | C=CCN1CC(=O)N2[C@@H](Cc3ccc(O)cc3)C(=O)N(Cc3cccc4c(C(=O)N(C)CCN5CCOCC5)cn(C)c34)C[C@@H]2N1C(=O)NCc1ccccc1 [Compound F-26]
17 | 0.0025 | 9.65 | C=CCN1CC(=O)N2[C@@H](Cc3ccc(O)cc3)C(=O)N(Cc3cccc4c(C(=O)NC5CCN(C(=O)c6ccc(N7CCN(C)CC7)cc6)CC5)cn(C)c34)C[C@@H]2N1C(=O)NCc1ccccc1 [Compound F-67]
18 | 0.0119 | 2.57 | C=CCN1CC(=O)N2C(Cc3ccc(O)cc3)C(=O)N(Cc3cccc4c(C(=O)Nc5ccc(NCCCN6CCCC6)nc5)cn(C)c34)CC2N1C(=O)NCc1ccccc1 (centres unmarked) [Compound G-32]
19 | 0.0012 | 6.75 | C=CCN1CC(=O)N2[C@@H](Cc3ccc(O)cc3)C(=O)N(Cc3cccc4c(C(=O)Nc5ccc(N(C)C)nc5)cn(C)c34)C[C@@H]2N1C(=O)NCc1ccccc1 [Compound G-15]
20 | 0.0119 | 3.84 | C=CCN1CC(=O)N2[C@@H](Cc3ccc(O)cc3)C(=O)N(Cc3cccc4c(C(=O)NCCCOC)cn(C)c34)C[C@@H]2N1C(=O)NCc1ccccc1 [Compound F-6]
21 | 0.0057 | 2.61 | C=CCN1CC(=O)N2[C@@H](Cc3ccc(O)cc3)C(=O)N(Cc3cccc4c(C(=O)Nc5ccc(OC)cc5)cn(C)c34)C[C@@H]2N1C(=O)NCc1ccccc1 [Compound G-3]
22 | 0.0013 | 2.37 | C=CCN1CC(=O)N2C(Cc3ccc(O)cc3)C(=O)N(Cc3cccc4c(C(=O)Nc5ccc(N6CCC(N7CCCCC7)CC6)nc5)cn(C)c34)CC2N1C(=O)NCc1ccccc1 (centres unmarked) [Compound G-55]
23 | 0.0013 | 6.04 | C=CCN1CC(=O)N2C(Cc3ccc(O)cc3)C(=O)N(Cc3cccc4c(C(=O)Nc5ccc(N6CCN(CCO)CC6)nc5)cn(C)c34)CC2N1C(=O)NCc1ccccc1 (centres unmarked) [Compound G-44]
24 | 0.0099 | 10.1 | C=CCN1CC(=O)N2[C@@H](Cc3ccc(O)cc3)C(=O)N(Cc3cccc4c(C(=O)Nc5ccc(OCCN(C)C)nc5)cn(C)c34)C[C@@H]2N1C(=O)NCc1ccccc1 [Compound G-12]
25 | 0.0154 | 2.53 | C=CCN1CC(=O)N2[C@@H](Cc3ccc(O)cc3)C(=O)N(Cc3cccc4c(C(=O)N(C)CC5(CO)CC5)cn(C)c34)C[C@@H]2N1C(=O)NCc1ccccc1 [Compound F-9]
26 | 0.0018 | 7.62 | C=CCN1CC(=O)N2[C@@H](Cc3ccc(O)cc3)C(=O)N(Cc3cccc4c(C(=O)Nc5ccc(OCCOC)nc5)cn(C)c34)C[C@@H]2N1C(=O)NCc1ccccc1 [Compound G-11]
27 | 0.0013 | 6.12 | C=CCN1CC(=O)N2C(CN(Cc3cccc4c(C(=O)Nc5ccc(N6CCN(C(C)C)CC6)nc5)cn(C)c34)C(=O)[C@@H]2Cc2ccc(O)cc2)N1C(=O)NCc1ccccc1 (some centres unmarked) [Compound G-46]
28 | 0.0014 | 3.29 | C=CCN1CC(=O)N2[C@@H](Cc3ccc(O)cc3)C(=O)N(Cc3cccc4c(C(=O)Nc5ccc(N6CCC(N7CCC7)CC6)nc5)cn(C)c34)C[C@@H]2N1C(=O)NCc1ccccc1 [Compound G-54]
29 | 0.0023 | 3.67 | C=CCN1CC(=O)N2[C@@H](Cc3ccc(O)cc3)C(=O)N(Cc3cccc4c(C(=O)Nc5cnc(N6CCN(C(C)C)CC6)nc5)cn(C)c34)C[C@@H]2N1C(=O)NCc1ccccc1 [Compound G-47]
30 | 0.015 | 3.85 | C=CCN1CC(=O)N2[C@@H](Cc3ccc(O)cc3)C(=O)N(Cc3cccc4c(-c5ccc(C(=O)OC)cc5)cn(C)c34)C[C@@H]2N1C(=O)NCc1ccccc1 [Compound H-1]
31 | 0.0076 | 2.51 | C=CCN1CC(=O)N2[C@@H](Cc3ccc(O)cc3)C(=O)N(Cc3cccc4c(C(=O)N(C)CCO)cn(C)c34)C[C@@H]2N1C(=O)NCc1ccccc1 [Compound F-3]

From patent US8940739B2, “Compound of a reverse-turn mimetic and a production method and use therefor” (JW Pharmaceutical Corporation, priority 2010, dated 2015)
